Assay results taken from patent publication US20090197899A1, “3-(Dihydro-1H-pyrazolo[4,3-d]pyrimidin-5-yl)-4-propoxybenzenesulfonamide Derivatives and Methods of Use” (Concert Pharmaceuticals Inc., priority 2006, published 2009).

Assay: Metabolic stability of test compounds using human liver microsomes
Format: in vitro ADME
Conditions: for differentiation of t1/2 (longer) as compared to udenafil: human liver microsomes, assay conditions 0.5 mg/mL, 1 µM test compd; for half-life at 1 µM: pooled human liver microsomes, in vitro t1/2, 0.5 mg/mL human liver microsomes, 1 μM test compound, 2 mM NADPH, pH 7.4, 37° C., experiment run an additional three times, read-out: Avg t1/2 (min) ± SD
Experimental: Determination of Metabolic Stability of Test Compounds using Human Liver Microsomes. The metabolic stability of compounds of the invention was tested using pooled liver microsomal incubations. Full scan LC-MS analysis was then performed to detect major metabolites. Samples of the test compounds, exposed to pooled human liver microsomes, were analyzed using HPLC-MS (or MS/MS) detection. For determining metabolic stability, multiple reaction monitoring (MRM) was used to measure the disappearance of the test compounds. For metabolite detection, Q1 full scans were used as survey scans to detect the major metabolites.
Experimental Procedures. Human liver microsomes (“HLM”; 20 mg/mL) were obtained from Xenotech, LLC (Lenexa, Kans.). β-nicotinamide adenine dinucleotide phosphate, reduced form (NADPH), magnesium chloride (MgCl2), and dimethyl sulfoxide (DMSO) were purchased from Sigma-Aldrich.
Stock solutions (7.5 mM) of Compounds 100, 103, 108 and 210 and udenafil were prepared in DMSO. The 7.5 mM stock solutions were diluted to 50 μM in acetonitrile (ACN). The 20 mg/mL human liver microsomes were diluted to 0.625 mg/mL in 0.1 M potassium phosphate buffer, pH 7.4, containing 3 mM MgCl2. The diluted microsomes (375 μL) were added to wells of a 96-well deep-well polypropylene plate in triplicate. Ten μL of the 50 μM test compound solution was added to the microsomes and the mixture was pre-warmed for 10 minutes. Reactions were initiated by addition of 125 μL of pre-warmed NADPH solution (8 mM NADPH in 0.1M potassium phosphate buffer, pH 7.4, containing 3 mM MgCl2). […] The reaction mixtures were incubated at 37° C., and 50 μL aliquots were removed at 0, 5, 10, 20, and 30 minutes and added to shallow-well 96-well plates which contained […] of ice-cold ACN with internal standard to stop the reactions. The plates were stored at 4° C. for 20 minutes after which […] of water was added to the wells of the plate before centrifugation to pellet precipitated proteins. Supernatants were transferred to another 96-well plate and analyzed for amounts of parent remaining by LC-MS/MS using an Applied Bio-systems API 4000 mass spectrometer.
The in vitro t1/2s for test compounds were calculated from the slopes of the linear regression of % parent remaining (ln) vs incubation time relationship using the following formula:
in vitro t1/2=0.693/k, where k=−[slope of linear regression of % parent remaining(ln) vs incubation time]. Data analysis was performed using Microsoft Excel Software.

| SMILES | differentiation of t1/2 (longer) as compared to udenafil [%] | half-life at 1 µM [min] |
| --- | --- | --- |
| [2H]C([2H])(CC1CCCN1C)NS(=O)(=O)c1ccc(OCCC)c(-c2nc3c(CCC)nn(C([2H])([2H])[2H])c3c(=O)[nH]2)c1 (stereo not shown) [Compound 100] | ~20 | 41.3 ± 1.5 |
| [2H]C([2H])(CC1CCCN1C)NS(=O)(=O)c1ccc(OCCC)c(-c2nc3c(CCC)nn(C)c3c(=O)[nH]2)c1 (stereo not shown) [Compound 103] | – | 37.2 ± 1.8 |
| [2H]C([2H])([2H])n1nc(CCC)c2nc(-c3cc(S(=O)(=O)NCCC4CCCN4C)ccc3OCCC)[nH]c(=O)c21 (stereo not shown) [Compound 108] | – | 36.2 ± 1.5 |

Further lines, results first:

| differentiation of t1/2 (longer) as compared to udenafil [%] | half-life at 1 µM [min] | SMILES |
| --- | --- | --- |
| ~20 | 42.4 ± 3.74 | [2H]C([2H])(CC1CCCN1C)NS(=O)(=O)c1ccc(OC([2H])([2H])C([2H])([2H])C([2H])([2H])[2H])c(-c2nc3c(CC([2H])([2H])C([2H])([2H])[2H])nn(C([2H])([2H])[2H])c3c(=O)[nH]2)c1 (stereo not shown) [Compound 210, 3-(1-(Methyl-d3)-7-oxo-3-(2,2,3,3,3-d5-propyl)-6,7-dihydro-1H-pyrazolo[4,3-d]pyrimidin-5-yl)-N-(2-(1-methylpyrrolidin-2-yl)-1,1-d2-ethyl)-4-(propoxy-d7)-benzenesulfonamide] |
| – | 33.6 ± 2.2 | CCCOc1ccc(S(=O)(=O)NCCC2CCCN2C)cc1-c1nc2c(CCC)nn(C)c2c(=O)[nH]1 (stereo not shown) [Udenafil, 3-(1-methyl-7-oxo-3-propyl-6,7-dihydro-1H-pyrazolo[4,3-d]pyrimidin-5-yl)-N-[2-(1-methylpyrrolidin-2-yl)ethyl]-4-propoxybenzenesulfonamide, reference compound] |
